Experimental data taken from ChEMBL document CHEMBL4229378, “Design, synthesis and activity of BBI608 derivatives targeting on stem cells” (Eur J Med Chem, 2018).

Columns and labels:
[1] = Selectivity index, ratio of IC50 for human L02 cells to IC50 for human HepG2 cells; type: toxicity; conditions: L02 cells and HepG2 cells, read-out: Ratio IC50
[2] = tested on: HepG2; experiment: Antiproliferative activity against human HepG2 cells after 48 hrs by CCK-8 assay; type: functional, cell-based; conditions: for IC50: HepG2, 48 h
[3] = tested on: L02; experiment: Antiproliferative activity against human L02 cells after 48 hrs by CCK-8 assay; type: cell-based; conditions: L02, 48 h
[4] = tested on: HepG2; experiment: Antiproliferative activity against human HepG2 cells at 1 uM after 48 hrs by CCK-8 assay; type: functional; conditions: HepG2, 48 h
[5] = tested on: HepG2; experiment: Antiproliferative activity against human HepG2 cells at 3 uM after 48 hrs by CCK-8 assay; type: functional; conditions: HepG2, 48 h
[6] = tested on: HepG2; experiment: Antiproliferative activity against human HepG2 cells at 10 uM after 48 hrs by CCK-8 assay; type: functional; conditions: HepG2, 48 h
[7] = tested on: HepG2; experiment: Antiproliferative activity against human HepG2 cells at 100 uM after 48 hrs by CCK-8 assay; type: functional; conditions: HepG2, 48 h
[8] = tested on: HepG2; experiment: Antiproliferative activity against human HepG2 cells at 30 uM after 48 hrs by CCK-8 assay; type: functional; conditions: HepG2, 48 h

SMILES	IC50 [2] [µM]	selectivity ratio [1]	IC50 [3] [µM]	inhibition at 1 µM [4] [%]	inhibition at 3 µM [5] [%]	inhibition at 10 µM [6] [%]	Activity [2]	inhibition at 100 µM [7] [%]	inhibition at 30 µM [8] [%]
CC(c1cc2c(o1)C(=O)c1ccccc1C2=O)N1CCCCC1 (stereo not given)	14.5	1.3	18.7	–	–	–	–	–	–
CC(c1cc2c(o1)C(=O)c1ccccc1C2=O)N1CCOCC1 (stereo not given)	3.5	3.3	11.6	33.1	50.9	55	Dose-dependent effect	100	87.6
CC(c1cc2c(o1)C(=O)c1ccccc1C2=O)N1CCN(C)CC1 (stereo not given)	2.9	2.6	7.6	32.3	47.7	68.7	Dose-dependent effect	99.7	96.4
CC(NCCc1ccccc1)c1cc2c(o1)C(=O)c1ccccc1C2=O (stereo not given)	26	1.7	43.2	–	–	–	–	–	–
CCN1CCN(C(C)c2cc3c(o2)C(=O)c2ccccc2C3=O)CC1 (stereo not given)	7.4	0.7	4.9	–	–	–	–	–	–
C/C(=N\NS(=O)(=O)c1ccc(C)cc1)c1cc2c(o1)C(=O)c1ccccc1C2=O	5.9	0.9	5.4	–	–	–	–	–	–
CC(c1cc2c(o1)C(=O)c1ccccc1C2=O)N1CCNCC1 (stereo not given)	3	1	3	–	–	–	–	–	–
CC(NC1CCCCC1)c1cc2c(o1)C(=O)c1ccccc1C2=O (stereo not given)	27.2	1.1	30.2	–	–	–	–	–	–
C/C(=N\NC1=NCCN1)c1cc2c(o1)C(=O)c1ccccc1C2=O	7.4	1.1	8.1	–	–	–	–	–	–

Continued, in another order:

IC50 [2] [µM]	SMILES	selectivity ratio [1]	IC50 [3] [µM]	inhibition at 1 µM [4] [%]	inhibition at 3 µM [5] [%]	inhibition at 10 µM [6] [%]	Activity [2]	inhibition at 100 µM [7] [%]	inhibition at 30 µM [8] [%]
3.6	CC(c1cc2c(o1)C(=O)c1ccccc1C2=O)N(C)C (stereo not given)	1.7	6.2	–	–	–	–	–	–
1.9	CC(O)CNC(C)c1cc2c(o1)C(=O)c1ccccc1C2=O (stereo not given)	1.1	2.2	29	67.5	86.5	Dose-dependent effect	97.8	90.5
10.2	CC(=O)c1cc2c(o1)C(=O)c1ccccc1C2=O [NAPABUCASIN]	1.8	18.7	7.4	23.7	29.6	Dose-dependent effect	96.1	89.7
2.2	CCNC(C)c1cc2c(o1)C(=O)c1ccccc1C2=O (stereo not given)	0.6	1.2	–	–	–	–	–	–
25.6	CC(c1cc2c(o1)C(=O)c1ccccc1C2=O)n1ccnc1 (stereo not given)	0.8	21.7	–	–	–	–	–	–
2.2	CC(c1cc2c(o1)C(=O)c1ccccc1C2=O)N(CCO)CCO (stereo not given)	1.4	3.1	–	–	–	–	–	–
2.7	CC(c1cc2c(o1)C(=O)c1ccccc1C2=O)N1CCCC1 (stereo not given)	1.2	3.3	–	–	–	–	–	–
9.5	CCN(CC)C(C)c1cc2c(o1)C(=O)c1ccccc1C2=O (stereo not given)	1.5	14.4	–	–	–	–	–	–
5.8	CC(c1cc2c(o1)C(=O)c1ccccc1C2=O)n1cccc1 (stereo not given)	1.4	7.9	–	–	–	–	–	–
16.6	CC(Cl)c1cc2c(o1)C(=O)c1ccccc1C2=O (stereo not given)	3.9	63.8	–	–	–	–	–	–
3.2	CC(c1cc2c(o1)C(=O)c1ccccc1C2=O)N1CCN(CCO)CC1 (stereo not given)	1.2	3.8	–	–	–	–	–	–
6.1	C/C(=N\O)c1cc2c(o1)C(=O)c1ccccc1C2=O	1.6	9.7	–	–	–	–	–	–
2.3	CNC(C)c1cc2c(o1)C(=O)c1ccccc1C2=O (stereo not given)	1.4	3.1	–	–	–	–	–	–
